Measurements taken from publication PMC5584707, “Pro-Secretory Activity and Pharmacology in Rabbits of an Aminophenyl-1,3,5-Triazine CFTR Activator for Dry Eye Disorders” (Investigative Ophthalmology & Visual Science, 2017).
One block for each molecule: values may come before it.

How the values were obtained:
[1] = molecular target: T1, CFTR chloride conductance at the rabbit ocular surface (Oryctolagus cuniculus, UniProt Q00554); experiment: Ocular surface potential difference (PD) in vivo, CFTR
T1 construct: from tissue; host or cells: ocular surface (cornea, bulbar and palpebral conjunctiva) of living anesthetized rabbits
T1 sequence (Q00554 whole entry): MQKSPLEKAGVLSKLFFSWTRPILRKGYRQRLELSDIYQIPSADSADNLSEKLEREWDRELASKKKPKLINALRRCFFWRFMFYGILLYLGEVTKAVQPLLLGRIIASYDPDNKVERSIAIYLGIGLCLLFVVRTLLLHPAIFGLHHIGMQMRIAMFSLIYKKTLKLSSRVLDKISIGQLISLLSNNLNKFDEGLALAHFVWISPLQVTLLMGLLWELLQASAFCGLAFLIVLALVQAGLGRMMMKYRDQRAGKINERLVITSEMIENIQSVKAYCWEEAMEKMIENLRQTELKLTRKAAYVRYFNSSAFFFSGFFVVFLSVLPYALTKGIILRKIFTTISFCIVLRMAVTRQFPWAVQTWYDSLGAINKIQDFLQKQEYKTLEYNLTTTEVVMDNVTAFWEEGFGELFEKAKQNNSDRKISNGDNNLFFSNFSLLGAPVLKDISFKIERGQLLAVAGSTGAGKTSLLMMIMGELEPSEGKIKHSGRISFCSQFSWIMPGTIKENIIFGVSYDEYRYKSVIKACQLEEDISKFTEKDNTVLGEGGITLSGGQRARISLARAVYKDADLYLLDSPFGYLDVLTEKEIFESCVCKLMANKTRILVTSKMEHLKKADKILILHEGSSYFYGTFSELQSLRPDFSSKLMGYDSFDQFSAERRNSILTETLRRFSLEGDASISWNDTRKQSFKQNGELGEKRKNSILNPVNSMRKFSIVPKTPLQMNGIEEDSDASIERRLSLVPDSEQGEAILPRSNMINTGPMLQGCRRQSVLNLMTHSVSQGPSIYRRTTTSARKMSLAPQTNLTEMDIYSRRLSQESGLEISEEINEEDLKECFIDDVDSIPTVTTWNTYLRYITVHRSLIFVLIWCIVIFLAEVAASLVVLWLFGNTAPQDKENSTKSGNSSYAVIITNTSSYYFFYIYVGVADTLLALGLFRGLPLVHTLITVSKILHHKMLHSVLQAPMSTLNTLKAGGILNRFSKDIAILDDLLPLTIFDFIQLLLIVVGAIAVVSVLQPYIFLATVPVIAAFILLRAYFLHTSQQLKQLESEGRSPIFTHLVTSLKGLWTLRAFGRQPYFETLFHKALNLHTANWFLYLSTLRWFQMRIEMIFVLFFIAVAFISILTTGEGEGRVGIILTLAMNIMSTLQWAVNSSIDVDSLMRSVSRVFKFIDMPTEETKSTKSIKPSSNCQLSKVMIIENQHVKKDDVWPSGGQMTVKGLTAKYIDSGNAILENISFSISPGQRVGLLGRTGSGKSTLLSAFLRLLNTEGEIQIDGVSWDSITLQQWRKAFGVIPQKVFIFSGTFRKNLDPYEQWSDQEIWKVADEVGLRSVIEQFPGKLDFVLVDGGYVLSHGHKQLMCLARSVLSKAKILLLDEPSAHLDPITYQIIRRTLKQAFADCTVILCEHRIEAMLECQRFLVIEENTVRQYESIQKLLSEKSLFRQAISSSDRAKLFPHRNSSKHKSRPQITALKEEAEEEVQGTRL
Procedure: (§1) Open-circuit transepithelial potential difference (PD, in mV) at the ocular surface was measured continuously in anesthetized rabbits using a procedure modified from that established in mice.[8] Rabbits were intubated and anesthetized with isoflurane, and respiratory rate, blood pressure, and body temperature were monitored. For PD recording, solutions (see below) were serially perfused at 10 mL/min through PE-90 plastic tubing using a gravity multireservoir pinch-valve system (ALA Scientific, Westbury, NY, USA) and a variable-flow peristaltic pump (medium flow model; Thermo Fisher Scientific, Fair Lawn, NJ, USA). A perfusion catheter was fixed onto an adjustable stereotaxic frame with the tip immersed in solution contacting the ocular surface, as diagrammed in Figure 2A. Excess fluid was aspirated by continuous suction (low-powered wall vacuum) using 1/8-inch tubing (inner diameter 3/32 inch) placed 3 mm from the lateral canthus to maintain near-constant perfusate volume in contact with cornea, bulbar conjunctiva, and palpebral conjunctiva without fluid runoff. The measuring electrode contacted the perfusion catheter and was connected to a high-impedance voltmeter (IsoMilivolt Meter; World Precision Instruments, Sarasota, FL, USA). The reference electrode was grounded using a winged, 25-gauge needle filled with normal saline inserted subcutaneously in the abdomen. […]

[2] = molecular target: T2, CFTR in rabbit forniceal and palpebral conjunctiva (Oryctolagus cuniculus, UniProt Q00554); experiment: Short-circuit current in freshly isolated conjunctiva, CFTR; assay type: biochemical; conditions: ex vivo rabbit conjunctiva
T2 construct: a sheet of forniceal and palpebral conjunctiva was dissected; from tissue; host or cells: freshly isolated rabbit forniceal and palpebral conjunctiva in an Ussing chamber
T2 sequence (Q00554 whole entry): as above
Procedure: Short-circuit current was measured in freshly isolated rabbit conjunctiva, as described[16] with modification. Rabbits were euthanized by injection of 150 mg/kg euthasol into the marginal ear vein. The entire eyeball with eyelids intact was removed from the orbit to preserve conjunctival epithelial integrity. Within 10 minutes, a sheet of forniceal and palpebral conjunctiva was dissected, mounted onto a P2304 tissue slider (Physiologic Instruments, San Diego, CA, USA), and placed into the Ussing chamber. The apical and basolateral chambers contained (in mM): 120 NaCl, 3 KCl, 1 CaCl2, 1 MgCl2, 10 glucose, 25 NaHCO3, and 5 HEPES, pH 7.4. […] Hemichambers were connected to a DVC-1000 voltage clamp (World Precision Instruments Inc., Sarasota, FL, USA) via Ag/AgCl electrodes and 3 M KCl agar bridges.

dry eye = tested on: dry eye; set-up: method as in PMID 15502479; conditions: United States; cited from earlier work
ENaC [3] = experiment: Ocular surface potential difference (PD) in vivo, amiloride-sensitive sodium channel; conditions: rabbit in vivo, amiloride 100 μM, average
Procedure: as §1

ENaC [4] = experiment: Short-circuit current in freshly isolated conjunctiva, amiloride; assay type: biochemical; conditions: ex vivo rabbit conjunctiva, 10 μM
Procedure: Short-circuit current was measured in freshly isolated rabbit conjunctiva, as described[16] with modification. Rabbits were euthanized by injection of 150 mg/kg euthasol into the marginal ear vein. The entire eyeball with eyelids intact was removed from the orbit to preserve conjunctival epithelial integrity. Within 10 minutes, a sheet of forniceal and palpebral conjunctiva was dissected, mounted onto a P2304 tissue slider (Physiologic Instruments, San Diego, CA, USA), and placed into the Ussing chamber. The apical and basolateral chambers contained (in mM): 120 NaCl, 3 KCl, 1 CaCl2, 1 MgCl2, 10 glucose, 25 NaHCO3, and 5 HEPES, pH 7.4. Solutions were bubbled with 95% O2/5% CO2 and maintained at 37°C. Hemichambers were connected to a DVC-1000 voltage clamp (World Precision Instruments Inc., Sarasota, FL, USA) via Ag/AgCl electrodes and 3 M KCl agar bridges.

human wildtype CFTR = conditions: cell cultures, cited from earlier work
tear volume in mice = conditions: delivered topically; cited from earlier work
[5] = tested on: lacrimal gland ablation models in mice; set-up: method as in PMID 26842854; conditions: cited from earlier work

Further change in ocular surface PD on top of CFTRact-K267 ([1]; forskolin 20 μM after 10 μM CFTRact-K267): minimally further increased
CFTR activation (short-circuit current) ([2]; high concentration): Maximal CFTR activation
Change in short-circuit current ([2]; low concentration 25 nM): small increase in current
Molecule: C=C[C@@]1(C)CC(=O)[C@]2(O)[C@@]3(C)[C@@H](O)CCC(C)(C)[C@@H]3[C@H](O)[C@H](OC(C)=O)[C@@]2(C)O1 [forskolin]

Molecule: O=c1ccn([C@@H]2O[C@H](COP(=O)(O)OP(=O)(O)OP(=O)(O)OP(=O)(O)OC[C@H]3O[C@@H](n4ccc(=O)[nH]c4=O)[C@H](O)[C@@H]3O)[C@@H](O)[C@H]2O)c(=O)[nH]1 [diquafosol]
Efficacy in phase III trials (dry eye): did not show efficacy

Molecule: N=C(N)NC(=O)c1nc(Cl)c(N)nc1N [amiloride]
Depolarization of ocular surface PD (ENaC [3]): ~5 mV
Effect on short-circuit current (ENaC [4]): no amiloride effect
Effect on short-circuit current (ENaC [4]; listed as Amiloride): no effect

Reversal of PD changes ([1]; CFTRinh-172 10 μM in final perfusion solution): largely reversed
Effect on increases in short-circuit current ([2]; CFTR inhibitor added last): inhibited
Molecule: CFTRinh-172

Molecule: CCN(CC)c1nc(Nc2ccccc2)nc(OC(C(F)(F)F)C(F)(F)F)n1 [CFTRact-K089]
Extent of CFTR activation (human wildtype CFTR): fully activated CFTR
EC50 (human wildtype CFTR; read-out: EC50 of CFTR activation): ~250 nM
Duration of increase in tear volume (tear volume in mice): 4 h
Effect on tear volume (tear volume in mice): doubled tear volume
Effect on pathology when administered after development of dry eye [5]: reversed pathology
Effect on corneal epithelial disruption ([5]; three times daily): prevented corneal epithelial disruption
Effect on tear volume ([5]; three times daily): normalized tear volume
